According to US5462868A (priority 1991, dated 1995):
Read-outs that look alike come from different tables or passages of the source.

Tests used:
cocaine esterase [1] = assay type: biochemical, Pseudomonas maltophilia MB11L; settings: 1 mM inhibitor; for % ACTIVITY RELATIVE TO CONTROL: preincubated 30° C. 10 min, 2 mM cocaine, 0.9 U/ml=100% activity; for inhibition of cocaine esterase activity (in words): 30° C., 10 min
Method: (§1) The reaction was stopped by the addition of 10 μl of concentrated phosphoric acid and protein pelleted at 13,000 rpm in a minifuge. The amount of benzoic acid produced was determined by HPLC analysis of 50 μl of the supernatant and comparison to standard samples (0-1 mM) treated identically. Standard curves of peak height plotted against benzoic acid concentration were linear over the range 0-1 mM. Controls containing no enzyme solution were run to allow for background hydrolysis. An assay was considered invalid if no cocaine remained at the end of the assay (seen by HPLC). One unit of esterase activity is defined as the amount of enzyme required to produce 1 μmol of benzoic acid in 1 min at 30° C.
The possible inhibitors tested were phenylmethylsulphonyl fluoride (PMSF), eserine, para-hydroxymercuribenzoate (pHMB), benzoate and ecgonine methyl ester.

[2] = Screen of esterases for activity against cocaine (HPLC); assay type: biochemical; settings: 2 mM cocaine in 50 mM buffer of pH suited for maximum enzyme activity
[3] = Specific activity of esterases against their usual substrate; assay type: biochemical; settings: usual substrate of each enzyme
Method: Control incubations containing no enzyme were performed under each set of conditions to allow accurate assaying of enzyme activity.

cocaine esterase [4] = assay type: biochemical, Pseudomonas maltophilia MB11L; settings: for Km: read-out: Apparent Km
Method: as §1
Reactions were stopped using concentrated phosphoric acid (10 μl) to precipitate protein, which was removed by centrifugation at 13,000 rpm in a Microfuge. Rates of substrate hydrolysis were calculated from HPLC analyses of the incubations. Non-enzymic rates of hydrolysis were calculated from control samples containing no enzyme, and the enzyme assays corrected accordingly. Standard samples of the relevant free acids were used to calibrate each assay. […] Lineweaver-Burke and Eadie-Hofstee plots were used to obtain these values (see Fersht, 1985, Enzyme Structure and Mechanism, 2nd Edition, Publishers: W. H. Freeman & Co., Oxford for methods).

[5] = purified cocaine esterase, 50 mM bis-tris-propane buffer pH 8.0, 30° C., 10 min, mean values

In the case of `O=C(O)c1ccccc1` [Benzoate, benzoate], the “% ACTIVITY RELATIVE TO CONTROL” value (cocaine esterase [1]) is reported as 92%.

With “Electric eel acetyl-cholinesterase: commercially available esterase enzyme” the “SPECIFIC ACTIVITY (U/mg) AGAINST COCAINE” value [2] was 0 U/mg and the “SPECIFIC ACTIVITY (U/mg) AGAINST USUAL SUBSTRATE” value [3] was 320 U/mg.

With `CCOC(=O)c1cccc(O)c1` [Ethyl 3-hydroxybenzoate] the “Apparent Km” value (cocaine esterase [4]; [5]) was “No activity” and the “Apparent Vmax” value (cocaine esterase [4]; [5]) was “No activity”.

With `CNC(=O)Oc1ccc2c(c1)[C@]1(C)CCN(C)[C@@H]1N2C` [Eserine, eserine] the “inhibition of cocaine esterase activity (in words)” value (“inhibition” for short) (cocaine esterase [1]) was “relatively ineffective” and the “% ACTIVITY RELATIVE TO CONTROL” value (cocaine esterase [1]) was 95%.

In the case of “Horse serum butyryl-cholinesterase: commercially available esterase enzyme”, the “SPECIFIC ACTIVITY (U/mg) AGAINST COCAINE” value [2] is reported as 0.098 U/mg and the “SPECIFIC ACTIVITY (U/mg) AGAINST USUAL SUBSTRATE” value [3] is reported as 14 U/mg.

For `CCOC(=O)c1ccccc1O` [Ethyl 2-hydroxycenzoate], the Km (cocaine esterase [4]; [5]) was 1.75 mM.

For `O=C(O)c1cc[c]([Hg][OH])cc1` [pHMB, para-hydroxymercuribenzoate], the “inhibition” value (cocaine esterase [1]) was “relatively ineffective” and the “% ACTIVITY RELATIVE TO CONTROL” value (cocaine esterase [1]) was 86%.

For `COC(=O)[C@@H]1[C@H]2CC[C@@H](C[C@@H]1O)N2C` [Ecgonine methyl ester, ecgonine methyl ester], the “% ACTIVITY RELATIVE TO CONTROL” value (cocaine esterase [1]) was 82%.

In the case of `COC(=O)[C@H]1[C@@H](OC(=O)c2ccccc2)C[C@@H]2CC[C@H]1N2C` [Cocaine], the “Apparent Vmax” value (cocaine esterase [4]; [5]) is reported as 29.5 U/mg and the Km (cocaine esterase [4]; [5]) is reported as 0.36 mM.

In the case of `CCOC(=O)c1ccc(O)cc1` [Ethyl 4-hydroxybenzoate], the “Apparent Km” value (cocaine esterase [4]; [5]) is reported as “No activity” and the “Apparent Vmax” value (cocaine esterase [4]; [5]) is reported as “No activity”.

In the case of `CCOC(=O)c1ccccc1` [Ethyl benzoate], the “Apparent Vmax” value (cocaine esterase [4]; pH 8) is reported as 65.0 U/mg and the Km (cocaine esterase [4]; pH 8) is reported as 1.89 mM.

For `O=S(=O)(F)Cc1ccccc1` [PMSF, phenylmethylsulphonyl fluoride], the “inhibition” value (cocaine esterase [1]) was “total inactivation” and the “% ACTIVITY RELATIVE TO CONTROL” value (cocaine esterase [1]) was 0%.

B1: Porcine pancreatic lipase: commercially available esterase enzyme (protein, UniProt P00591 1-450, looked up)
Pancreatic triacylglycerol …: SEVCFPRLGCFSDDAPWAGIVQRPLKILPWSPKDVDTRFLLYTNQNQNNYQELVADPSTITNSNFRMDRKTRFIIHGFIDKGEEDWLSNICKNLFKVESVNCICVDWKGGSRTGYTQASQNIRIVGAEVAYFVEVLKSSLGYSPSNVHVIGHSLGSHAAGEAGRRTNGTIERITGLDPAEPCFQGTPELVRLDPSDAKFVDVIHTDAAPIIPNLGFGMSQTVGHLDFFPNGGKQMPGCQKNILSQIVDIDGIWEGTRDFVACNHLRSYKYYADSILNPDGFAGFPCDSYNVFTANKCFPCPSEGCPQMGHYADRFPGKTNGVSQVFYLNTGDASNFARWRYKVSVTLSGKKVTGHILVSLFGNEGNSRQYEIYKGTLQPDNTHSDEFDSDVEVGDLQKVKFIWYNNNVINPTLPRVGASKITVERNDGKVYDFCSQETVREEVLLTLNPC
With B1 the “SPECIFIC ACTIVITY (U/mg) AGAINST COCAINE” value [2] was 0 U/mg and the “SPECIFIC ACTIVITY (U/mg) AGAINST USUAL SUBSTRATE” value [3] was 50 U/mg.
